Laboratory results from patent US20080109040A1, “METHOD OF TREATING ARRHYTHMIAS” (priority 2002, published 2008).

Columns and labels:
[1] = system: patients with LQT3-ΔKPQ mutation; assay: 8-hour intravenous ranolazine infusion in patients with hereditary long QT-syndrome LQT3-ΔKPQ; type: in vivo, human
Description: Subjects were drawn from the U.S. portion of the international LQTS Registry. Eligibility criteria for enrollment in the study were genotype confirmed LQT3-ΔKPQ mutation with QTc>0.47 sec, males or females age 18-55 years of age, and signed informed consent to participate in this study. Patients already taking beta-blocking medication were continued on the drug. Patients with an implanted pacemaker or defibrillator or those with prior cervical-thoracic sympathetic ganglionectomy were not excluded. Exclusion criteria included significant comorbility that would preclude the patient's safe participation in this study, pregnancy or women of child-bearing age not receiving appropriate contraceptive therapy with any other sodium-channel blocker, use of medications that inhibit CYP-3A4 hepatic enzymes, (including diltiazem or verapamil) and psycho-social problems that could compromise compliance with the protocol. Thirteen patients with the LQT3-ΔKPQ mutation from two unrelated families met the eligibility criteria without exclusion, and of eight contacted patients five agreed to participate in the study.
Each patient had clinical and laboratory assessment including ultrasound evaluation on Day-2. Baseline studies off drug began at 8:00 am on Day-1: 12-lead ECG recorded at 8:00 am and every 0.5 hour for 8 hours and then at 2, 4, and 16 hours thereafter; a continuous 12-lead Holter was recorded for 24 hours. The 8-hour infusion of intravenous ranolazine was started at 8:00 am on Day 1 with time-matched ECG recordings at the same times as on Day-1. The second echocardiogram was obtained just before completion of the 8-hour of ranolazine infusion on Day 1. Blood samples for plasma ranolazine concentrations were drawn at hourly intervals during the ranolazine infusion, and at 2, 4, and 16 hours following completion of ranolazine infusion on Day 1.
Five patients with LQT3-ΔKPQ mutation were prospectively investigated during 8-hour intravenous infusions of ranolazine with electrocardiographic and echocardiographic evaluation before and during ranolazine administration. Ranolazine was infused at a rate of 40 mg/hr for 3 hours, with doubling of the infusion rate during the subsequent 5 hours while obtaining hourly ranolazine blood levels.
Changes in electrocardiographic parameters from before to during ranolazine infusion were evaluated by time-matched, paired t-test analyses, with repeated measures analysis of variance (ANOVA) where appropriate. The primary pre-specified electrocardiographic QTc analysis utilized a mixed-effects linear model of the change from time-matched baseline in QTc during ranolazine infusion with a fixed effect for time and a random effect for subject. A linear regression equation relating ranolazine blood level to QTc was developed using an analysis of covariance with effects for ranolazine level, subject and the interaction of subject with ranolazine level. The echocardiographic analyses involved evaluation of baseline parameters relative to normal standards for the laboratory as well as statistical comparisons of change in specific quantitative parameters between baseline and the peak ranolazine infusion. Two-sided p-values<0.05 were considered significant.
12-lead ECGs and 24-hour 12-lead Holter ECGs were obtained to evaluate ventricular repolarization before, during, and after ranolazine infusion. The QT interval and the Fridericia corrected QT interval for heart rate (QTc) were measured according to standard criteria. QT was measured from the beginning of QRS complex to the end of T wave determined by an intersection of T wave and isoelectric line or to the nadir between T and U waves. U waves were not incorporated in the measurement of QT interval. Measurement of T-wave patterns included QT peak (ms), T-wave duration (ms), T peak-T end (ms), and T-wave amplitude (mv). The ECG parameters were measured on 3 consecutive beats in lead II, with lead aVF or V5 used if lead II was technically unsatisfactory. […]

[2] = system: epicardial preparations; assay: Action potential studies in isolated canine ventricular epicardial tissues; design: Amplitude / Overshoot: unit not given beside the values; details: for Amplitude / Overshoot / RMP: epicardial, BCL = 500 msec
Description: The composition of the Tyrode's solution was (in mM): […] Action potential recordings: Transmembrane potentials were recorded using standard glass microelectrodes filled with 2.7 M KCl (10 to 20 MΩ DC resistance) connected to a high input-impedance amplification system (World Precision Instruments, Sarasota, Fla., USA). […] Data recorded at BCLs of 500 and 2000 msec are presented.

[3] = system: transient outward current (Ito); assay: Transient outward current voltage clamp in isolated canine left ventricular myocytes; type: cell-based; details: for Effect on Ito: any of the test voltages
[4] = peak ranolazine infusion vs baseline
[5] = epicardium, low [K+]o, BCL = 2000 msec

COc1ccccc1OCC(O)CN1CCN(CC(=O)Nc2c(C)cccc2C)CC1 (racemic) [ranolazine, N-(2,6-dimethylphenyl)-4-[2-hydroxy-3-(2-methoxyphenoxy)propyl]-1-piperazineacetamide]
QTc during ranolazine ([1]; 8-hour iv infusion, baseline 558±55 ms): 532 ± 46 ms
Mean reduction in QTc from baseline ([1]; entire 8-hour iv ranolazine infusion, 5 patients): 26 ± 3 ms
Average slope of QTc vs. ranolazine plasma concentration ([1]; human, in vivo): −24 ms per 1000 ng/ml
Decrease in mitral E-wave deceleration time [1, 4]: 18%
Increase in mitral E-wave velocity [1, 4]: 27%
Shortening in left ventricular isovolumic relaxation time [1, 4]: 15%
Adverse effects ([1]; study patients): No adverse effects
Effect on APD ([2]; epicardial tissues, BCL 500 msec): concentration-dependent prolongation
Amplitude ([2]; ranolazine 1.0 μM): 93 ± 5
Overshoot ([2]; ranolazine 1.0 μM): 10 ± 4
RMP ([2]; ranolazine 1.0 μM): −84 ± 4
Amplitude ([2]; ranolazine 5.0 μM): 101 ± 2
Overshoot ([2]; ranolazine 5.0 μM): 12 ± 3
RMP ([2]; ranolazine 5.0 μM): −89 ± 1
Amplitude ([2]; ranolazine 10.0 μM): 94 ± 5
Overshoot ([2]; ranolazine 10.0 μM): 8 ± 4
RMP ([2]; ranolazine 10.0 μM): −88 ± 2
Amplitude ([2]; ranolazine 50.0 μM): 86 ± 12
Overshoot ([2]; ranolazine 50.0 μM): 0 ± 11
RMP ([2]; ranolazine 50.0 μM): −86 ± 1
Amplitude ([2]; ranolazine 100.0 μM (n=2)): 93 ± 3
Overshoot ([2]; ranolazine 100.0 μM (n=2)): 8 ± 4
RMP ([2]; ranolazine 100.0 μM (n=2)): −85 ± 3
Effect on APD90 ([2]; epicardium, low [K+]o, BCL 500 msec): prominent concentration-dependent prolongation
Effect on APD50 [2, 5]: little change
Effect on APD90 [2, 5]: concentration-dependent prolongation
Effect on APD in two of four epicardial preparations ([2]; ranolazine 100.00 μM, BCL 500 msec): excessive APD prolongation
Effect on Ito ([3]; ranolazine 10 μM): no effect
Effect on Ito ([3]; ranolazine 20 μM): no effect
Reduction of peak Ito ([3]; ranolazine 50 μM, 4 min): less than 10
Reduction of Ito ([3]; ranolazine 50 μM, test potential 10 mV): 10±2%
Reduction of Ito ([3]; ranolazine 100 μM, test potential 0 mV): 16±3%
Reduction of Ito ([3]; ranolazine 100 μM, test potential 10 mV): 17±4%
